Laboratory results taken from PubChem BioAssay (NCI).
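All cell lines were grown in 96-well plates and treated with compound for 48 hours. The concentration for 50% growth inhibition is given as GI50. TGI: concentration producing complete growth inhibition.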

Legend:
Test in all cases: inhibition of tumour cell growth, NCI panel, 48 h
A549 NSCLC = system: A549 NSCLC
NCI-H226 lung = system: NCI-H226 lung
SF-268 CNS = system: SF-268 CNS
SK-MEL-28 melanoma = system: SK-MEL-28 melanoma
IGROV1 ovarian = system: IGROV1 ovarian
MALME-3M melanoma = system: MALME-3M melanoma
U251 CNS = system: U251 CNS
A498 renal = system: A498 renal
MCF7 breast = system: MCF7 breast
T-47D breast = system: T-47D breast

Row | SMILES | TGI (A549 NSCLC) [µM] | TGI (NCI-H226 lung) [µM] | TGI (SF-268 CNS) [µM] | TGI (SK-MEL-28 melanoma) [µM] | TGI (IGROV1 ovarian) [µM] | TGI (MALME-3M melanoma) [µM] | TGI (U251 CNS) [µM] | TGI (A498 renal) [µM] | TGI (MCF7 breast) [µM] | GI50 (A498 renal) [µM] | GI50 (A549 NSCLC) [µM] | GI50 (NCI-H226 lung) [µM] | GI50 (SF-268 CNS) [µM] | GI50 (SK-MEL-28 melanoma) [µM] | GI50 (IGROV1 ovarian) [µM] | GI50 (MALME-3M melanoma) [µM] | GI50 (U251 CNS) [µM] | GI50 (MCF7 breast) [µM] | TGI (T-47D breast) [µM] | GI50 (T-47D breast) [µM]
1 | O=C1[C@@H](c2ccc(Cl)cc2)[C@H]2CC=C[C@H]2N1O | > 100 | > 100 | > 100 | > 100 | > 100 | > 100 | – | – | – | – | – | – | – | – | – | – | – | – | – | –
2 | CC12CC3(C)CC(C)(C1)CC(N=[N+]=[N-])(C2)C3 | > 100 | > 100 | > 100 | > 100 | > 100 | > 100 | > 100 | > 100 | – | – | – | – | – | – | – | – | – | – | – | –
3 | CC(=O)N(CCN)CCN | > 10 | – | > 100 | > 10 | – | – | > 10 | > 10 | – | – | – | – | – | – | – | – | – | – | – | –
4 | O=c1nc(-c2ccccc2)c2c3c(cccn13)CCC2 | > 100 | > 100 | > 100 | > 100 | > 100 | > 100 | > 100 | > 100 | – | – | – | – | – | – | – | – | – | – | – | –
5 | Cc1cc(C)c2c(c1)CN1CN2Cc2cc(C)cc(C)c21 | > 100 | 61.5 | > 100 | 44.4 | > 100 | – | 32.3 | – | – | – | – | – | – | – | – | – | – | – | – | –
6 | CON(C)C(=O)C(C)NC(=O)OCc1ccccc1 (stereo not drawn) | > 100 | > 100 | > 100 | > 100 | > 100 | > 100 | > 100 | > 100 | > 100 | – | – | – | – | – | – | – | – | – | – | –
7 | O=[N+]([O-])c1ccc(N=Nc2c(O)[nH]c3ccc([N+](=O)[O-])cc23)cc1 | 32.4 | 7 | 38 | 47.4 | > 100 | – | 41.7 | > 100 | – | – | – | – | – | – | – | – | – | – | – | –
8 | CC1(C)C(=O)C(O)=CC2C1=CCC1C2(C)C(=O)CC2(C)C(C(C)(O)C(=O)CC(O)C(C)(C)O)C(O)CC12C (stereo not drawn) | > 74.1 | 7.31 | 9.76 | 7.43 | 7.1 | 12.1 | 7.58 | 4.37 | – | – | – | – | – | – | – | – | – | – | – | –
9 | Cc1cc([N+](=O)[O-])c(C)c2c1[nH]c1ccc(/C(CCC3CCCC3)=N\N)cc12 | 34.2 | 41.5 | 37.5 | 34 | – | 32 | – | – | – | – | – | – | – | – | – | – | – | – | – | –
10 | Cc1cc(Cl)ccc1NC(=O)C(=O)Cc1nc2ccc(C(=O)c3ccccc3)cc2[nH]c1=O | > 100 | > 100 | > 100 | > 100 | > 100 | > 100 | – | – | – | – | – | – | – | – | – | – | – | – | – | –
11 | CC[O-].CC[O-].O=C1C(=C([O-])c2ccccc2)C(=O)c2ccccc21.O=C1C(=C([O-])c2ccccc2)C(=O)c2ccccc21.[Ti+4] | > 100 | > 100 | > 10 | > 10 | > 100 | > 100 | – | > 100 | – | > 100 | > 100 | > 100 | > 10 | > 10 | > 100 | > 100 | – | – | – | –
12 | O=C(c1ccccc1)c1c(CC(O)c2cccnc2)n(C(=O)c2ccccc2)c2ccccc12 (stereo not drawn) | > 100 | 24.6 | 59.4 | 31.5 | 55.5 | 43.3 | 30.7 | – | – | – | – | – | – | – | – | – | – | – | – | –
13 | CC(C)c1cccc(C(C)C)c1NC(=O)C(=O)C(C(=O)c1ccccc1-c1ccccc1)C1OC(=O)c2ccccc21 (stereo not drawn) | > 100 | – | 61.5 | 71.9 | 74.7 | 33.9 | 25.4 | – | – | – | – | – | – | – | – | – | – | – | – | –
14 | N=C(N)SCc1cn2ccccc2n1 | > 100 | > 100 | > 100 | > 100 | – | > 100 | > 100 | – | – | – | – | – | – | – | – | – | – | – | – | –
15 | Cc1c(C)c2cc3c(=O)ccoc3c(C)c2oc1=O | > 100 | > 100 | > 100 | > 100 | > 100 | > 100 | > 100 | > 100 | – | – | – | – | – | – | – | – | – | – | – | –
16 | COc1ccc([C@H]2CC(=O)N3CCCC3N2)cc1 (stereo partly drawn) | > 100 | > 100 | > 100 | > 100 | > 100 | > 100 | > 100 | > 100 | – | – | – | – | – | – | – | – | – | – | – | –
17 | Cc1cc(O)c2c(c1)C(O)(c1ccc3c(c1O)C(=O)c1c(O)cc(C)cc1C3(O)C1OC(CO)C(O)C(O)C1O)c1cccc(O)c1C2=O (stereo not drawn) | 32.2 | – | 36 | 28.9 | 28.1 | 25.5 | 23.8 | 26.5 | – | – | – | – | – | – | – | – | – | – | – | –

Row | SMILES | TGI (A549 NSCLC) [µM] | TGI (NCI-H226 lung) [µM] | TGI (SF-268 CNS) [µM] | TGI (SK-MEL-28 melanoma) [µM] | TGI (IGROV1 ovarian) [µM] | TGI (MALME-3M melanoma) [µM] | TGI (U251 CNS) [µM] | TGI (A498 renal) [µM] | TGI (MCF7 breast) [µM] | GI50 (A498 renal) [µM] | GI50 (A549 NSCLC) [µM] | GI50 (NCI-H226 lung) [µM] | GI50 (SF-268 CNS) [µM] | GI50 (SK-MEL-28 melanoma) [µM] | GI50 (IGROV1 ovarian) [µM] | GI50 (MALME-3M melanoma) [µM] | GI50 (U251 CNS) [µM] | GI50 (MCF7 breast) [µM] | TGI (T-47D breast) [µM] | GI50 (T-47D breast) [µM]
18 | Cc1ccc(C(=O)/C(=C/c2ccc([N+](=O)[O-])cc2)S(=O)Cc2ccccc2)cc1 (stereo not drawn) | 5.66 | 4.72 | 3.72 | 3.15 | 3.29 | 3.54 | 2.24 | 3.4 | 2.2 | 1.75 | 2.26 | 1.71 | 1.71 | 1.66 | 1.42 | 1.69 | 1.02 | 0.372 | – | –
19 | CCc1ccccc1NC(=O)C(=O)C(C(=O)c1ccc(OC)cc1)c1ccc(OC)cc1 (stereo not drawn) | > 100 | > 100 | > 100 | – | > 100 | > 100 | > 100 | > 100 | – | – | – | – | – | – | – | – | – | – | – | –
20 | O=C(CCc1nc(=S)[nH][nH]1)NC12CC3CC(CC(C3)C1)C2 | > 100 | > 100 | – | > 100 | > 100 | > 100 | > 100 | > 100 | – | – | – | – | – | – | – | – | – | – | – | –
21 | COc1ccc(C2C(Cl)C(=O)N2n2cnc3ccccc3c2=O)cc1OC (stereo not drawn) | > 100 | > 100 | > 100 | > 100 | > 100 | > 100 | > 100 | – | – | – | – | – | – | – | – | – | – | – | – | –
22 | COc1ccc(C(C2=C(C)C(=O)c3ccccc3C2=O)c2ccc(C(C)C)cc(=O)c2O)cc1 (stereo not drawn) | 13.4 | 4.94 | 23 | – | 12.6 | > 100 | 10.9 | – | – | – | – | – | – | – | – | – | – | – | – | –
23 | CSc1nc2c(c(O)c(C)c(=O)n2C2OC(COC(C)=O)C(OC(C)=O)C(OC(C)=O)C2OC(C)=O)c(=O)n1C (stereo not drawn) | > 100 | > 100 | > 100 | > 100 | > 100 | > 100 | > 100 | > 100 | – | – | – | – | – | – | – | – | – | – | – | –
24 | C/C(=N/N(C=O)C[n+]1ccccc1)C(CN(CC(C)C)CC(C)C)C(=O)Nc1ccc(C)cc1C (stereo not drawn) | > 100 | – | > 100 | > 100 | > 100 | > 100 | – | > 100 | – | – | – | – | – | – | – | – | – | – | – | –
25 | COC(=O)C1=CCON(c2ccccc2)C1c1ccccc1 (stereo not drawn) | > 100 | > 100 | > 100 | > 100 | > 100 | > 100 | > 100 | – | – | – | – | – | – | – | – | – | – | – | – | –
26 | COc1cc2nncc(Sc3cnnc4ccccc34)c2cc1OC | 71.9 | 67.3 | > 100 | 60.9 | > 100 | 32.4 | 67.5 | 82 | – | – | – | – | – | – | – | – | – | – | – | –
27 | Nc1cc(N)c2nc(-c3ccccc3)c(Oc3ccc(F)cc3)nc2c1 | 46.3 | 49.1 | 47.6 | 46.5 | > 100 | – | 78.6 | 39.6 | > 100 | 21.9 | 24.2 | 20.3 | 13.8 | 19.4 | 28.5 | – | 23.2 | 20.3 | – | –
28 | COc1ccc(OC)c(-c2cc(-c3ccccc3)nn2-c2ccc(S(=O)(=O)NC(C)=O)cc2)c1 | > 100 | 24.8 | 32.2 | – | > 100 | – | – | – | > 100 | – | 22.9 | 11.7 | 10.1 | – | 27.4 | – | – | 2.38 | – | –
29 | O=c1oc2ccccc2c(O)c1C=NC(=S)c1ccncc1 | > 100 | > 100 | – | > 100 | > 100 | – | > 100 | – | > 100 | – | – | – | – | – | – | – | – | – | > 100 | –
30 | C[n+]1cc2c3c(ccc2c2ccc4cc5c(cc4c21)OCO5)OCO3 | 1.15 | 2.98 | 1.7 | 2.48 | 2.48 | 1.83 | 1.28 | 3.12 | – | 1.54 | 0.322 | 1.54 | 0.489 | 1.22 | 1.18 | 0.564 | 0.331 | – | 3.13 | 1.42
31 | C=C1C(=O)O[C@@H]2C[C@@]3(C)CC(=O)C=C(C)[C@@H]3C[C@H]12 | > 100 | > 100 | 42.5 | 41.9 | 32.2 | 21.7 | 39.1 | – | 14.9 | – | – | – | – | – | – | – | – | – | 28.3 | –
32 | Clc1ccc([O][In]([O]c2ccc(Cl)cn2)[O]c2ccc(Cl)cn2)nc1 | > 100 | > 100 | > 100 | > 100 | > 100 | > 100 | > 100 | – | – | – | > 100 | > 100 | > 100 | > 100 | > 100 | > 100 | > 100 | – | – | –
33 | COc1cc(Nc2ccnc(N3CCN(c4ccnc5cc(Cl)ccc45)CC3)n2)cc(OC)c1 | > 26.7 | > 55.7 | > 100 | > 100 | > 26.1 | – | > 26.9 | – | > 25.6 | – | 1.81 | 2.34 | 3.05 | 1.39 | 1.36 | – | 1.66 | 0.198 | – | –
34 | Fc1cccc(Cl)c1C1SCc2nc3ccccc3n21 (stereo not drawn) | > 100 | > 100 | > 100 | – | > 100 | 45.8 | 89.7 | > 100 | – | – | – | – | – | – | – | – | – | – | – | –
